Experimental data: patent publication US4202876A, “Investigating body function” (The Radiochemical Centre Limited, priority 1977, dated 1980)

Legend:
[1] = Biliary collection of 75Se radioactivity after intravenous injection, bile-cannulated rabbit; format: in vivo
Protocol: A male rabbit (NZW×LOP; 4.8 kg) was anaesthetized with sodium pentobarbitone ("Sagatal"), intravenously injected. A tracheotomy was performed and into a jugular vein was inserted a cannula with a 3-way tap. The animal was ventilated by intermittent positive pressure and anaesthesia maintained by intravenous administration of pentobarbitone as required. A midline ventral incision was made in the abdominal wall and the liver reflected to reveal the gall bladder, cystic duct and the common bile duct. After ligation of the cystic duct the common bile duct was cannulated for the collection of bile.
After a period of stabilization 1 ml of a solution of 19-methyl-[^75 Se]selenocholesterol (0.01 mg; 12 mCi) in polysorbate/normal saline was injected via the jugular cannula. Bile was collected as a series of 15-minute samples in preweighed tubes. After collection each sample was weighed and counted for ^75 Se radioactivity. The flow of bile, initially at 3.4 ml/15 minutes, declined to 1.5 ml/15 minutes after 61/2 hours. During this period 56.65 g of bile was collected containing approximately 100 μCi of ^75 Se radioactivity (about 1 percent of the injected dose).

[2] = Intravenous administration to humans with the object of adrenal visualisation; format: in vivo, human
Description: It was surmised that 19-methyl-^75 Se selenocholesterol was being converted to analogues of bile salts in which a methylseleno group was attached to the C19 carbon atom.

[3] = Tissue distribution studies in rats after oral administration; format: in vivo, rat; settings: for whole body retention by tissue distribution (dissection): at the end of 8 days
Protocol: The pattern of tissue distribution is similar for all the compounds. At 20 hours the ^75 Se radioactivity is largely confined to the liver, gut and faeces; apart from compounds iii and iv less than 5 percent of the radioactivity is distributed among other organs.

[4] = Clinical whole-body counting of 75Se retention after oral administration; format: in vivo, human; settings: for Retention of Selenium-75 Radioactivity: oral approx. 1 μCi
Protocol: Approximately 1 μCi of compound ii was given orally as a drink in water to four adult volunteers, two of them being normal active adult males, 35-50 years of age, and two who had received a total ileal resection more than 10 years previously. All were on a normal diet. Se-ii was administered between 10.00 am and 12 noon. Body radioactivity was then measured in a whole-body counter immediately after administering the ^75 Se-ii and subsequently at 48 hours and 7 days.

[5] = Whole-body excretion studies in rats after oral administration (whole-body counts, bi-exponential fit); format: in vivo, rat; settings: for b (amplitude of second component) / c (constant; percentage predicted as never being excreted) / x (rate constant of first component) / y (rate constant of second component): Retention(t)=ae^-xt+be^-yt+c; for a (amplitude of first component, Retention(t)=ae^-xt+be^-yt+c): whole-body retention as % of initial counts, 6-8 days
Protocol: Whole-body excretion studies in rats over a period of 8 days after oral administration of compounds i to viii indicate that excretion is delayed with respect to a non-absorbable radioactive maker, ^131 I-polyvinylpyrollidone.
For each of the eight compounds under investigation, approximately 10-15 μCi was administered via an intragastric tube to rats. Whole-body counts were determined immediately after administration and at intervals during the following 6-8 days. A whole-body standard permitted corrections for radioactive decay and variations in counter efficiency.
Whole-body retention is expressed as a percentage of the counts determined immediately after administration.
Retention (t)=ae^-xt +be^-yt +c (1)

[6] = Biliary excretion studies in rats, oral mixture of 75Se-seleno bile acid and 14C-cholic acid; format: in vivo, rat
Protocol: Measurement of the ratio of the ^14 C/^75 Se radioactivity collected in a 24 hour bile sample to the ^14 C/^75 Se radioactivity administered orally gives an indication of the efficiency of absorption of the seleno bile acid as compared to ^14 C-cholic acid. Ideally, when these absorptions are the same the ratio would be 1, but as the efficiency of the adsorption seleno bile acid diminishes the ratio increases.

[7] = at 20 hours, relative to the other compounds

| Structure (SMILES) | b (amplitude of second component) [5] [%] | c (constant; percentage predicted as never being excreted) [5] [%] | x (rate constant of first component) [5] [day⁻¹] | y (rate constant of second component) [5] [day⁻¹] | a (amplitude of first component, Retention(t)=ae^-xt+be^-yt+c) [5] [%] | further results |
| --- | --- | --- | --- | --- | --- | --- |
| C[75Se]C[C@]12CC[C@H](O)CC1=CC[C@@H]1[C@@H]2CC[C@]2(C)[C@@H]([C@H](C)CCCC(C)C)CC[C@@H]12 [19-methyl-[^75 Se]selenocholesterol] |  |  |  |  |  | 75Se radioactivity collected in bile (of injected dose) ([1]; i.v. via jugular cannula, bile collected 6 1/2 hours, 390 min): about 1%; 75Se radioactivity collected in bile ([1]; i.v., 12 mCi injected, 56.65 g bile over 6 1/2 hours): approximately 100 μCi; localisation of selenium-75 radioactivity [2]: concentrated in the enterohepatic system; metabolism compared with cholesterol [2]: appeared to parallel that of cholesterol |
| C[C@H](C[75Se]CC(=O)O)[C@H]1CC[C@H]2[C@@H]3CC[C@@H]4C[C@H](O)CC[C@]4(C)[C@H]3C[C@H](O)[C@]12C [Compound ii, 3α,12α-dihydroxy-22-(carboxymethyl-[^75 Se]seleno)-23,24-bisnor-5β-cholane] | 27.6 | 3.36 | 2.29 | 0.65 | 190 | 75Se radioactivity in the faeces [3, 7]: a very much small percentage of ^75 Se radioactivity in the faeces; 75Se radioactivity in the small bowel [3, 7]: a correspondingly larger proportion in the small bowel; Retention of Selenium-75 Radioactivity ([4]; Ileal resection (3), 0 h): 100%; Retention of Selenium-75 Radioactivity ([4]; Ileal resection (3), 48 hrs.): 26%; Retention of Selenium-75 Radioactivity ([4]; Ileal resection (3), 7 days): 7.5%; Retention of Selenium-75 Radioactivity ([4]; Ileal resection (4), 0 h, patient on drugs to slow bowel transfer): 100%; Retention of Selenium-75 Radioactivity ([4]; Ileal resection (4), 48 hrs., patient on drugs to slow bowel transfer): 80%; Retention of Selenium-75 Radioactivity ([4]; Ileal resection (4), 7 days, patient on drugs to slow bowel transfer): 9.5%; Retention of Selenium-75 Radioactivity ([4]; Normal (1), 0 h): 100%; Retention of Selenium-75 Radioactivity ([4]; Normal (1), 48 hrs.): 80%; Retention of Selenium-75 Radioactivity ([4]; Normal (1), 7 days): 31%; Retention of Selenium-75 Radioactivity ([4]; Normal (2), 0 h): 100%; Retention of Selenium-75 Radioactivity ([4]; Normal (2), 48 hrs.): 100%; Retention of Selenium-75 Radioactivity ([4]; Normal (2), 7 days): 27%; rate of elimination from the body ([4]; humans who have suffered an ileal resection): this rate of elimination is increased; rate of elimination from the body ([4]; normal humans, compared with rats): considerably slower than it is for rats |
| C[C@H](CC[75Se]CCC(=O)O)[C@H]1CC[C@H]2[C@@H]3[C@H](O)C[C@@H]4C[C@H](O)CC[C@]4(C)[C@H]3CC[C@]12C [iii, 3α,7α-dihydroxy-23-(β-carboxyethyl-[^75 Se]seleno)-24-nor-5β-cholane] | 37.5 | 4.0 | 2.31 | 0.53 | 170 | ratio of 14C/75Se radioactivity in 24 hour bile sample to 14C/75Se administered orally ([6]; 24 h bile, 14C-cholic acid internal marker, 1 = absorption same as cholic acid): 54; efficiency of absorption ([6]; compared to 14C-cholic acid): very much reduced absorption |
| C[C@H](CC[75Se]CCC(=O)O)[C@H]1CC[C@H]2[C@@H]3[C@H](O)C[C@@H]4C[C@H](O)CC[C@]4(C)[C@H]3C[C@H](O)[C@]12C [iv, 3α,7α,12α-trihydroxy-23-(β-carboxyethyl-[^75 Se]seleno)-24-nor-5β-cholane] | 42.5 | 15.5 | 2.77 | 0.66 | 260 | whole body retention by tissue distribution (dissection) [3]: ~5.5%; whole body retention by tissue distribution (dissection) ([3]; listed as tri-hydroxy compound): approximately 5.5% |
| CC([75Se]CC(=O)O)[C@H]1CC[C@H]2[C@@H]3[C@H](O)C[C@@H]4C[C@H](O)CC[C@]4(C)[C@H]3C[C@H](O)[C@]12C (stereo partly drawn) [v, 3α,7α,12α-trihydroxy-20-(carboxymethyl-[^75 Se]seleno)-5β-pregnane] | 16.5 | 0.8 | 2.52 | 0.38 | 98 |  |
| CC([75Se]CC(=O)NCC(=O)O)[C@H]1CC[C@H]2[C@@H]3[C@H](O)C[C@@H]4C[C@H](O)CC[C@]4(C)[C@H]3C[C@H](O)[C@]12C (some centres unmarked) [vi, Glyco-22-[^75 Se]selenacholic acid] | 7.2 | 0.58 | 1.54 | 0.54 | 221 |  |
| C[C@H](CCC[75Se]CC(=O)O)[C@H]1CC[C@H]2[C@@H]3CC[C@@H]4C[C@H](O)CC[C@]4(C)[C@H]3CC[C@]12C [vii, 3α-hydroxy-24-(carboxymethyl-[^75 Se]seleno)-5β-cholane] | 11.8 | 2.85 | 2.29 | 0.44 | 203 |  |
| C[C@H](CC[123Te]CC(=O)O)[C@H]1CC[C@H]2[C@@H]3CC[C@@H]4C[C@H](O)CC[C@]4(C)[C@H]3C[C@H](O)[C@]12C [viii, 3α,12α-dihydroxy-23-(carboxymethyl-[^123m Te]telluro)-24-nor-5β-cholane] | 6.3 | 1.3 | 2.26 | 0.43 | 173 |  |
